Source: the supplement of paper PMC10307832

Legend:
Assay in all cases: relative viability (nuclei count vs DMSO), 5 days (fraction); higher = more cells survive
[1] = tested on: COR-L23; details: first compound 0.1 µM
Method in brief: (§1)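 The day after seeding in 1536-well plates, lung cancer cell lines were treated by pin tool with a single drug, or with a fixed anchor-drug dose together with five library-drug doses (not always all listed) in √10 steps. After 5 days, a combined fix-and-stain solution (final 0.05% Triton X-100, 1% formaldehyde, 1 ug/ml Hoechst) was added. Nuclei counted on 4× images gave relative viability as treated counts over vehicle counts, reported as the median of duplicate plates.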

[2] = tested on: NCI-H1793
Method in brief: as §1

[3] = tested on: NCI-H838
Method in brief: as §1

[4] = tested on: NCI-H23
Method in brief: as §1

[5] = tested on: LCLC-103H
Method in brief: as §1

[6] = tested on: LXF-289
Method in brief: as §1

[7] = tested on: 201T
Method in brief: as §1

[8] = tested on: PC-3 [JPC-3]
Method in brief: as §1

[9] = tested on: LCLC-97TM1
Method in brief: as §1

[10] = tested on: RERF-LC-KJ
Method in brief: as §1

[11] = tested on: LOU-NH91
Method in brief: as §1

[12] = tested on: UMC-11
Method in brief: as §1

Structure (SMILES): Cc1cn(-c2cc(NC(=O)c3ccc(C)c(Nc4nccc(-c5cccnc5)n4)c3)cc(C(F)(F)F)c2)cn1 [Nilotinib] + N=C(N)NC(=N)NCCc1ccccc1 [Phenformin] (partner 250 µM)
- relative viability [1]: 0.45
- relative viability ([2]; first compound 0.001 µM): 0.36
- relative viability ([2]; first compound 0.003162 µM): 0.363
- relative viability ([2]; first compound 0.01 µM): 0.357
- relative viability ([2]; first compound 0.03162 µM): 0.196
- relative viability ([2]; first compound 0.1 µM): 0.232
- relative viability ([3]; first compound 0.001 µM): 0.599
- relative viability ([3]; first compound 0.003162 µM): 0.613
- relative viability ([3]; first compound 0.01 µM): 0.695
- relative viability ([3]; first compound 0.03162 µM): 0.492
- relative viability ([3]; first compound 0.1 µM): 0.51
- relative viability ([4]; first compound 0.001 µM): 0.706
- relative viability ([4]; first compound 0.003162 µM): 0.58
- relative viability ([4]; first compound 0.01 µM): 0.891
- relative viability ([4]; first compound 0.03162 µM): 0.624
- relative viability ([4]; first compound 0.1 µM): 0.594
- relative viability ([5]; first compound 0.001 µM): 0.326
- relative viability ([5]; first compound 0.003162 µM): 0.307
- relative viability ([5]; first compound 0.01 µM): 0.338
- relative viability ([5]; first compound 0.03162 µM): 0.333
- relative viability ([5]; first compound 0.1 µM): 0.288
- relative viability ([6]; first compound 0.001 µM): 0.545
- relative viability ([6]; first compound 0.003162 µM): 0.562
- relative viability ([6]; first compound 0.01 µM): 0.558
- relative viability ([6]; first compound 0.03162 µM): 0.506
- relative viability ([6]; first compound 0.1 µM): 0.454
- relative viability ([7]; first compound 0.003162 µM): 0.48
- relative viability ([7]; first compound 0.01 µM): 0.454
- relative viability ([7]; first compound 0.03162 µM): 0.477
- relative viability ([7]; first compound 0.1 µM): 0.491
- relative viability ([8]; first compound 0.001 µM): 0.463
- relative viability ([8]; first compound 0.003162 µM): 0.49
- relative viability ([8]; first compound 0.01 µM): 0.475
- relative viability ([8]; first compound 0.03162 µM): 0.443
- relative viability ([8]; first compound 0.1 µM): 0.482
- relative viability ([9]; first compound 0.001 µM): 0.393
- relative viability ([9]; first compound 0.003162 µM): 0.468
- relative viability ([9]; first compound 0.01 µM): 0.467
- relative viability ([9]; first compound 0.03162 µM): 0.426
- relative viability ([9]; first compound 0.1 µM): 0.453
- relative viability ([10]; first compound 0.001 µM): 0.406
- relative viability ([10]; first compound 0.003162 µM): 0.449
- relative viability ([10]; first compound 0.01 µM): 0.43
- relative viability ([10]; first compound 0.03162 µM): 0.344
- relative viability ([10]; first compound 0.1 µM): 0.453
- relative viability ([11]; first compound 0.001 µM): 0.752
- relative viability ([11]; first compound 0.003162 µM): 0.736
- relative viability ([11]; first compound 0.01 µM): 0.861
- relative viability ([11]; first compound 0.03162 µM): 0.663
- relative viability ([11]; first compound 0.1 µM): 0.75
- relative viability ([12]; first compound 0.001 µM): 0.312
- relative viability ([12]; first compound 0.003162 µM): 0.344
- relative viability ([12]; first compound 0.01 µM): 0.324
- relative viability ([12]; first compound 0.1 µM): 0.217
